Experimental data published in US20240158447A1, “PEPTIDES FOR USE IN THE TREATMENT OR PREVENTION OF MYOCARDIAL DAMAGE” (THE UNIVERSITY OF WESTERN AUSTRALIA, priority 2020, published 2024).

Assays:
[1] = system: cTnI-G203S mice; experiment: Heart weight to body weight ratio of treated cTnI-G203S mice; format: in vivo, mouse; conditions: 5 μM, 3×/wk/5 wk; compared with cTnI-G203S AID(S)-TAT; FIG. 16
Description: The effect of treatment of the mice with peptides on the development of hypertrophy assessed as changes in heart weight to body weight ratio was also examined. […] FIG. 16 presents the mean±SEM of heart weight to body weight ratio measurements from wt and cTnI-G203S mice treated with 10 μM AID(S)-TAT, 10 μM AID-TAT, 5 μM AIDP7-TAT, 5 μM AIDP14-TAT, 5 μM AIDP15-TAT or 5 μM AIDP16-TAT. n=number of mice as indicated. *P<0.05, **P<0.01 compared with cTnI-G203S AID(S)-TAT as determined by Kruskal-Wallis tests.

[2] = system: cTnI-G203S mutant myocytes; experiment: Flavoprotein oxidation response to BayK(−), cTnI-G203S myocytes (Example 10); format: cell-based, mouse; conditions: 0.5 μM peptide, 10 μM BayK(−), FIG. 10D
Description: (§1) In this experiment wt myocytes were pre-exposed to 0.1, 0.5 or 1 μM for 20 min and assessed changes in flavoprotein oxidation and ψm.
Measurement of mitochondrial flavoprotein oxidation: Flavoprotein autofluorescence was used to measure flavoprotein oxidation based on previously described methods (Yaniv Y, Juhaszova M, Lyashkov A E, Spurgeon H A, Sollott S J, Lakatta E G. Ca2+-regulated-cAMP/PKA signaling in cardiac pacemaker cells links ATP supply to demand. J Mol Cell Cardiol. 2011; 51(5):740-8). […] Fluorescent images were acquired at 1 min intervals with 200 ms exposure. Metamorph 6.3 (Version 7.10.3) was used to quantify the signal by manually tracing myocytes. […] Fluorescence values recorded over 5 min before and 5 min after addition of drugs were averaged and alterations in fluorescent ratios reported as the percentage increase from the basal average. FCCP (50 μM) and NaCN (40 mM) was added at the end of each experiment to achieve a respective maximal and minimal fluorescence value indicative of maximal and minimal flavoprotein oxidation.
The ICA-L agonist BayK(−) was used to activate the channel and assess mitochondrial function. […] FIG. 10 presents the mean+/−SEM of flavoprotein fluorescence from cTnI.2 wt and cTnI-G2035 mutant myocytes before and after exposure to 10 μM BayK(−) in the presence of 1 μM AID(S)-TAT, and increasing concentrations of variant peptides as indicated. […]

[3] = system: cTnI-G203S mice; experiment: Echocardiography of pre-cardiomyopathic cTnI-G203S mice (Example 15); format: in vivo, mouse; conditions: 5 μM, 3×/wk/5 wk; versus AID(S)-TAT; FIG. 15
Source text: Twenty to thirty week-old male mice expressing the human cTnI gene encoding the human disease-causing cTnI-G203S were generated and used for the in vivo studies. By way of background, the mice develop hallmark features of HCM between 20 and 25 weeks (Viola H, Johnstone V, Cserne Szappanos H, Richman T, Tsoutsman T, Filipovska A, et al. The L-type Ca(2+) channel facilitates abnormal metabolic activity in the cTnI-G2035 mouse model of hypertrophic cardiomyopathy. J Physiol. 2016; 594(14):4051-70; Viola H M, Shah A A, Johnstone V P A, Cserne Szappanos H, Hodson M P, Hool L C. Characterization and validation of a preventative therapy for hypertrophic cardiomyopathy in a murine model of the disease. Proc Nati Aced Sci U S A. 2020; 117(37):23113-24; Tsoutsman T, Chung J, Doolan A, Nguyen L, Williams IA, Tu E, et al. Molecular insights from a novel cardiac troponin I mouse model of familial hypertrophic cardiomyopathy. J Mol Cell Cardiol. 2006; 41(4):623-32). Age-matched male mice expressing the normal human troponin I gene were used as controls and indicated as wild-type (wt). For in vivo studies, 20-week old cTnI-G203S mice were treated with 10 μM AID(S)-TAT (2 mg/kg) or 5 μM AID-TAT mutant peptides via intraperitoneal injection, 3 times per week for a total duration of 5 weeks. The peptide was dissolved in phosphate buffered saline solution (PBS), and the total amount of the 10 μM AID-TAT mutant peptides administered over 5 weeks was 0.9 mg. The total amount of the 5 μM AID-TAT mutant peptides administered over 5 weeks was 0.45 mg Male mice were utilized to eliminate potential differences in responses due to gender. The number of mice used is indicated by N.
Echocardiographic studies to measure left ventricular function were performed on mice under light methoxyflurane anaesthesia with the use of an i13L probe on a Vivid™ 7 IQ ultrasound system (GE Healthcare, Little Chalfont, UK) as previously described (Viola H, Johnstone V, Cserne Szappanos H, Richman T, Tsoutsman T, Filipovska A, et al. The L-type Ca(2+) channel facilitates abnormal metabolic activity in the cTnI-G2035 mouse model of hypertrophic cardiomyopathy. J Physiol. 2016; 594(14):4051-70; Viola H M, Shah A A, Johnstone V P A, Cserne Szappanos H, Hodson M P, Hool L C. Characterization and validation of a preventative therapy for hypertrophic cardiomyopathy in a murine model of the disease. Proc Natl Acad Sci U S A. 2020; 117(37):23113-24; Viola H M, Johnstone V P A, Cserne Szappanos H, Richman T R, Tsoutsman T, Filipovska A, et al. The Role of the L-Type Ca(2+) Channel in Altered Metabolic Activity in a Murine Model of Hypertrophic Cardiomyopathy. JACC Basic Transl Sci. 2016; 1(1-2):61-72). Each N represents the average of quantitative measurements from wt or cTnI-G203S mice for each treatment group.

[4] = system: cTnI.2 wt myocytes; experiment: Mitochondrial membrane potential (JC-1) response to BayK(−), wt myocytes (Example 10); format: cell-based, mouse; conditions: 0.5 μM peptide, calcium-free, FIG. 11A
Description: as §1
Measurement of mitochondrial membrane potential: The fluorescent indicator 5,5′,6,6′-tetrachloro1,1′,3,3′-tetraethylbenzimidazolylcarbocyanine iodide (JC-1) was used to measure mitochondrial membrane potential (ψm) as previously described (Viola H M, Arthur P G, Hool L C. Transient exposure to hydrogen peroxide causes an increase in mitochondria-derived superoxide as a result of sustained alteration in L-type Ca2+ channel function in the absence of apoptosis in ventricular myocytes. Circ Res. 2007; 100(7):1036-44). […] Images were acquired at 2 min intervals with 50 ms exposure. Metamorph 6.3 (Version 7.10.3) was used to quantify the signal by manually tracing myocytes. An equivalent region not containing cells was used as background and was subtracted. The 580 nm/535 nm ratiometric fluorescence values recorded over 6 min before and 4 min after addition of drugs were averaged and alterations in fluorescent ratios reported as the percentage increase from the basal average. […] In addition, individual 580 and 535 signals were assessed in each experiment to determine whether the fluorescent indicator was accurately measuring ψm. […]
Based on results obtained from in vitro assessment of flavoprotein oxidation, the effect of 0.5 μM AID-TAT variants on changes in mitochondrial membrane potential (ψm) was further explored. Experiments were performed using JC-1 fluorescence under calcium-free conditions as previously described (Viola H, Johnstone V, Cserne Szappanos H, Richman T, Tsoutsman T, Filipovska A, et al. The L-type Ca(2+) channel facilitates abnormal metabolic activity in the cTnI-G2035 mouse model of hypertrophic cardiomyopathy. J Physiol. 2016; 594(14):4051-70; Viola H M, Shah A A, Johnstone V P A, Cserne Szappanos H, Hodson M P, Hool L C. Characterization and validation of a preventative therapy for hypertrophic cardiomyopathy in a murine model of the disease. Proc Natl Acad Sci U S A. 2020; 117(37):23113-24). […]

[5] = system: cTnI-G203S mutant myocytes; experiment: Mitochondrial membrane potential (JC-1) response to BayK(−), cTnI-G203S myocytes (Example 10); format: cell-based, mouse; conditions: for BayK(−) induced increase in ψm (JC-1 fluorescence): 0.5 μM peptide, calcium-free, FIG. 11B
Description: as §1
Measurement of mitochondrial membrane potential: The fluorescent indicator 5,5′,6,6′-tetrachloro1,1′,3,3′-tetraethylbenzimidazolylcarbocyanine iodide (JC-1) was used to measure mitochondrial membrane potential (ψm) as previously described (Viola H M, Arthur P G, Hool L C. Transient exposure to hydrogen peroxide causes an increase in mitochondria-derived superoxide as a result of sustained alteration in L-type Ca2+ channel function in the absence of apoptosis in ventricular myocytes. Circ Res. 2007; 100(7):1036-44). […] Images were acquired at 2 min intervals with 50 ms exposure. Metamorph 6.3 (Version 7.10.3) was used to quantify the signal by manually tracing myocytes. An equivalent region not containing cells was used as background and was subtracted. The 580 nm/535 nm ratiometric fluorescence values recorded over 6 min before and 4 min after addition of drugs were averaged and alterations in fluorescent ratios reported as the percentage increase from the basal average. To confirm that the signal was indicative of ψm, 40 mM NaCN was added at the end of each experiment to collapse ψm. In addition, individual 580 and 535 signals were assessed in each experiment to determine whether the fluorescent indicator was accurately measuring ψm. For calcium-free experiments, cells were exposed to calcium-free HBS (supplemented with 3 mM EGTA and 200 nM JC-1) for at least 3 h prior to measuring changes in ψm.
Based on results obtained from in vitro assessment of flavoprotein oxidation, the effect of 0.5 μM AID-TAT variants on changes in mitochondrial membrane potential (ψm) was further explored. Experiments were performed using JC-1 fluorescence under calcium-free conditions as previously described (Viola H, Johnstone V, Cserne Szappanos H, Richman T, Tsoutsman T, Filipovska A, et al. The L-type Ca(2+) channel facilitates abnormal metabolic activity in the cTnI-G2035 mouse model of hypertrophic cardiomyopathy. J Physiol. 2016; 594(14):4051-70; Viola H M, Shah A A, Johnstone V P A, Cserne Szappanos H, Hodson M P, Hool L C. Characterization and validation of a preventative therapy for hypertrophic cardiomyopathy in a murine model of the disease. Proc Natl Acad Sci U S A. 2020; 117(37):23113-24). […] FIG. 11 presents the mean+/−SE of JC-1 fluorescence from cTnI.2 wt and cTnI-G203S mutant myocytes before and after exposure to 10 μM BayK(−) in the presence of 1 μM AID(S)-TAT, and 0.5 μM of variant peptides as indicated. N=no. of animals, n=no. of cardiomyocytes. P values shown compared with AID(S)-TAT as determined by the Kruskal-Wallis test.

[6] = system: cTnI.2 wt myocytes; experiment: Flavoprotein oxidation response to BayK(−), wt myocytes (Example 10); format: cell-based, mouse; conditions: 1 μM peptide 20 min, 10 μM BayK(−), FIG. 10A
Description: as §1
Measurement of mitochondrial flavoprotein oxidation: Flavoprotein autofluorescence was used to measure flavoprotein oxidation based on previously described methods (Yaniv Y, Juhaszova M, Lyashkov A E, Spurgeon H A, Sollott S J, Lakatta E G. Ca2+-regulated-cAMP/PKA signaling in cardiac pacemaker cells links ATP supply to demand. J Mol Cell Cardiol. 2011; 51(5):740-8). […] Fluorescent images were acquired at 1 min intervals with 200 ms exposure. Metamorph 6.3 (Version 7.10.3) was used to quantify the signal by manually tracing myocytes. An equivalent region not containing cells was used as background and was subtracted. Fluorescence values recorded over 5 min before and 5 min after addition of drugs were averaged and alterations in fluorescent ratios reported as the percentage increase from the basal average. FCCP (50 μM) and NaCN (40 mM) was added at the end of each experiment to achieve a respective maximal and minimal fluorescence value indicative of maximal and minimal flavoprotein oxidation.
The ICA-L agonist BayK(−) was used to activate the channel and assess mitochondrial function. […] FIG. 10 presents the mean+/−SEM of flavoprotein fluorescence from cTnI.2 wt and cTnI-G2035 mutant myocytes before and after exposure to 10 μM BayK(−) in the presence of 1 μM AID(S)-TAT, and increasing concentrations of variant peptides as indicated. N=no. of animals, n=no. of cardiomyocytes. P values shown compared with AID(S)-TAT as determined by the Kruskal-Wallis test.

Substance	heart weight to body weight ratio [1]	BayK(−) induced increase in flavoprotein oxidation [2]	EF, ejection fraction [3]	FS, fractional shortening [3]	IVSd, intraventricular septum in diastole [3]	IVSs, intraventricular septum in systole [3]	LVEDd, left ventricular end diameter during diastole [3]	LVEDs, left ventricular end diameter during systole [3]	LVPWd, left ventricular posterior wall in diastole [3]	LVPWs, left ventricular posterior wall in systole [3]	BayK(−) induced increase in ψm (JC-1 fluorescence) [4]	BayK(−) induced increase in ψm (JC-1 fluorescence) [5]	normalising mitochondrial metabolic activity (in vitro, overall) ([5]; flavoprotein oxidation and JC-1 data together)	BayK(−) induced increase in flavoprotein oxidation [6]
AIDP14-TAT: QQEEEDLKGYLDWITQAE with TAT sequence	significantly decreased heart weight/body weight	significantly attenuated increases in flavoprotein oxidation resulting from BayK(−) exposure	effectively restored	effectively restored	effectively restored	effectively restored	trend toward increased LVEDd	effectively restored	effectively restored	effectively restored	significantly attenuated the response	significantly attenuated the response	most effective in normalising mitochondrial metabolic activity	–
AIDP15-TAT: QQEEEDEKGYLDWITQAE with TAT sequence	–	–	effectively restored	effectively restored	effectively restored	effectively restored	–	–	–	effectively restored	significantly attenuated the response	significantly attenuated the response	–	just as effective at attenuating the response in wt myocytes as the original AID-TAT
